Two molecules from the NIST ThermoML archive (doi:10.1016/j.jct.2006.06.002) can be followed below.

± gives the expanded uncertainty stated by the source.

This data set in a line: refractive index (Na D-line) (dimensionless). The note with it: 101.33 kPa, Liquid, Standard Abbe refractometry.

As to `c1ccccc1` [benzene], the refractive index (303.15 K) turned out to be 1.4954 ± 0.0009.
As for `CO` [methanol], where the note is “293.15 K”, the refractive index came to 1.3288 ± 0.0009.

As usually defined, the refractive index is a measure of how strongly the sample bends light.
